Experimental data taken from ChEMBL document CHEMBL1201862, “PubChem BioAssay data set” (2004).
Each block holds one molecule with its values, some of them ahead of it. Active and inactive are the calls of the source.

Legend:
HEK293 [1] = test: NOD1 signaling inhibitors, primary screen, cell-based, luminescence, uHTS (AID 1578); format: functional; details: Homo sapiens
[2] = molecular target: T1, Carboxy-terminal domain RNA polymerase II polypeptide A small phosphatase 1 (Homo sapiens, UniProt Q9GZU7); test: inhibitors of CTDSP1, concentration-response testing, biochemical assay, absorbance-based, actives from ultra-high-throughput screening (AID 540297); format: functional
T1 sequence (Q9GZU7 whole entry): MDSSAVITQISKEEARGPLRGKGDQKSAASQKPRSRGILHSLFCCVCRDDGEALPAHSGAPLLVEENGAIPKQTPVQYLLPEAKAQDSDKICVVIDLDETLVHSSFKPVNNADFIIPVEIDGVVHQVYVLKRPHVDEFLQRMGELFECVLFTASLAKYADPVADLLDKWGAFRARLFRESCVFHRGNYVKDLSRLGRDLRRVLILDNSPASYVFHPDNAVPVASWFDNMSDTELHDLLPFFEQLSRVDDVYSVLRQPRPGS

HEK293 [3] = test: NOD2 signaling inhibitors in MDP-stimulated cells, cell-based, uHTS, luminescence (AID 2001); format: functional; details: Homo sapiens
HEK293 [4] = test: cells; format: functional, cell-based; details: Homo sapiens
HEK293 [5] = test: cells; format: functional, cell-based; details: Homo sapiens; remark: listed apart in the source
[6] = molecular target: T2, Voltage-gated N-type calcium channel alpha-1B subunit/Amyloid beta A4 precursor protein-binding family A member 1 (Homo sapiens, UniProt Q00975+Q02410); format: protein assay
T2 sequence (Q00975 whole entry): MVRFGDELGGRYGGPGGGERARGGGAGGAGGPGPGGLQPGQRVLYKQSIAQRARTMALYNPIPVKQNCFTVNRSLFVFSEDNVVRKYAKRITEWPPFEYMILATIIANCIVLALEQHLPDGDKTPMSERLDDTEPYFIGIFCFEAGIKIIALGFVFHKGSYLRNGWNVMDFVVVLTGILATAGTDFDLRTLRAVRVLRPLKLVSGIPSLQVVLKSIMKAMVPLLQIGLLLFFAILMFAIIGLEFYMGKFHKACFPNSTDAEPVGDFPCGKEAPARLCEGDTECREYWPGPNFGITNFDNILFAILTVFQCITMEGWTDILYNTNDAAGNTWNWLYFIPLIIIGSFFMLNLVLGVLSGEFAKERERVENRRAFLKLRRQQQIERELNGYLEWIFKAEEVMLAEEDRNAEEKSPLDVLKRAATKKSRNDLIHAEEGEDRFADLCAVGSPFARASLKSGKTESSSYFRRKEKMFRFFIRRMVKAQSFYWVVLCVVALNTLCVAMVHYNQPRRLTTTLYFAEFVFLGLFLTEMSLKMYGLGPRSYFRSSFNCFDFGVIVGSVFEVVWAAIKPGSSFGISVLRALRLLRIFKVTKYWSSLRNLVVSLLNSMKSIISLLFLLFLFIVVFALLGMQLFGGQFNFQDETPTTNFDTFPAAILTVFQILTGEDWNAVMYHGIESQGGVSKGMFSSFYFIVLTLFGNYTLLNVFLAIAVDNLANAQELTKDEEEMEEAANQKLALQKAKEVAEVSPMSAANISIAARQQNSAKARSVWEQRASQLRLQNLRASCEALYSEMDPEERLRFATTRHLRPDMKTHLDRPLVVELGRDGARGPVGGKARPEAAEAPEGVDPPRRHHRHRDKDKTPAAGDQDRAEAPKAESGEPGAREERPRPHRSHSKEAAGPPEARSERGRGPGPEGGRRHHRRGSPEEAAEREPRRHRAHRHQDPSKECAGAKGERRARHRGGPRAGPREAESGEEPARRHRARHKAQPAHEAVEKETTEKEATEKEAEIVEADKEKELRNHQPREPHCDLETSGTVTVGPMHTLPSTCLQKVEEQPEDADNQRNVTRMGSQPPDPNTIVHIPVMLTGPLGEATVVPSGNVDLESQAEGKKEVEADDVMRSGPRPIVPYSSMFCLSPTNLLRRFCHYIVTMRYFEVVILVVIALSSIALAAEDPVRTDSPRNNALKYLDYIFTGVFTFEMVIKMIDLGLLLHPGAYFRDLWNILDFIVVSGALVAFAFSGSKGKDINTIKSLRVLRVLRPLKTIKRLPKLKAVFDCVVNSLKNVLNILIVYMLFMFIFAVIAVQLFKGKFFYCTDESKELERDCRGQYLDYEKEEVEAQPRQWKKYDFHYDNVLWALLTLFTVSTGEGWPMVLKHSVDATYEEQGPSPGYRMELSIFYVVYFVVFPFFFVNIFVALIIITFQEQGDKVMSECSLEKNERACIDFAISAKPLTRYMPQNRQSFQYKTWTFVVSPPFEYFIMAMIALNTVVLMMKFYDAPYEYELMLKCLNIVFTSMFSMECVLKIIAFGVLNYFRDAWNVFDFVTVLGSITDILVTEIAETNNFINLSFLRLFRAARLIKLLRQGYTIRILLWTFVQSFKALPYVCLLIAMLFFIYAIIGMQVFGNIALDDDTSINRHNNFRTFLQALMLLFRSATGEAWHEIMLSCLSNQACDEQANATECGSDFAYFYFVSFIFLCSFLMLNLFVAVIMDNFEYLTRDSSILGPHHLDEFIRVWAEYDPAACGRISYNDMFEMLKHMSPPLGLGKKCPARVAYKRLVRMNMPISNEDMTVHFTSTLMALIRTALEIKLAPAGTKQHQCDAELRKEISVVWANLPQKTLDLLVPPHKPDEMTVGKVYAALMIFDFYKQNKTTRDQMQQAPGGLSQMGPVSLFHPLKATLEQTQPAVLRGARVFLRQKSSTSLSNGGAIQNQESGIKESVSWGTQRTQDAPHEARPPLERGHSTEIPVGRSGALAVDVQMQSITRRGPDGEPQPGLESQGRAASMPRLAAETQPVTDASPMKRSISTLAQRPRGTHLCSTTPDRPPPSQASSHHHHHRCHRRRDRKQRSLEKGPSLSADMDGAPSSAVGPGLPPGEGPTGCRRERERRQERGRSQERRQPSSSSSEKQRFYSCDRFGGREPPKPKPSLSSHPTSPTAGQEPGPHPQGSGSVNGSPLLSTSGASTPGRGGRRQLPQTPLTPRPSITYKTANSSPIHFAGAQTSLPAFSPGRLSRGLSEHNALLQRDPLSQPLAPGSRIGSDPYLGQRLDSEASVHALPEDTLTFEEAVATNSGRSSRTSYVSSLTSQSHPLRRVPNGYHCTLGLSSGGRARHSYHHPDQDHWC
T2 sequence (Q02410 whole entry): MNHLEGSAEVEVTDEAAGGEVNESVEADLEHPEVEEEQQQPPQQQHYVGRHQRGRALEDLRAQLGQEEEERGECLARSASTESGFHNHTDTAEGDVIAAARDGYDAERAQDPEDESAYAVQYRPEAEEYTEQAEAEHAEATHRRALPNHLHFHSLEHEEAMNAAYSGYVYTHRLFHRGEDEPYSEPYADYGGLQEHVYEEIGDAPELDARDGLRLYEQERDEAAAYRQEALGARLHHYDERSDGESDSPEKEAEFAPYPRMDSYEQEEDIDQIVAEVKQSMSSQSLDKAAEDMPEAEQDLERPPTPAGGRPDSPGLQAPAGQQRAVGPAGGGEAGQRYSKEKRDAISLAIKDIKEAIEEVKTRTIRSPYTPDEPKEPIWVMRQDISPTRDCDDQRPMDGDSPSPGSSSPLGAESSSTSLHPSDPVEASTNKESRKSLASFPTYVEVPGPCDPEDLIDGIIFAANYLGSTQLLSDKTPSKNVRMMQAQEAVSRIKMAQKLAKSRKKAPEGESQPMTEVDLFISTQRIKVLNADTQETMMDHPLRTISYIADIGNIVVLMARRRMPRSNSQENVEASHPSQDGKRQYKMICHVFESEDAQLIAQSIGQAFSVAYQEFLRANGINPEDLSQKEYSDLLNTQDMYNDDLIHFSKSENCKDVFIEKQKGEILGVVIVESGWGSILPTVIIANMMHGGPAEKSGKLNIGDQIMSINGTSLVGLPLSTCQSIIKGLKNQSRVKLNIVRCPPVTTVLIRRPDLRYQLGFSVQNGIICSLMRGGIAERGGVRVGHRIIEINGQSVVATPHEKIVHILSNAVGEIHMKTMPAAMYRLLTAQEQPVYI

[7] = molecular target: T2, Voltage-gated N-type calcium channel alpha-1B subunit/Amyloid beta A4 precursor protein-binding family A member 1; format: protein assay; remark: listed apart in the source
[8] = molecular target: Nucleotide-binding oligomerization domain-containing protein 1 (Homo sapiens, UniProt Q9Y239); test: NOD1 signaling inhibitors, SAR follow-up, revised (AID 2333); format: functional
Tumor necrosis factor = Tumor necrosis factor (Homo sapiens, UniProt P01375); test: TNFa-triggered NF-kB activation inhibitors, SAR follow-up, cell-based, revised (AID 2337); format: functional
Chain of Tumor necrosis factor (P01375 whole entry, the tested form may be a part): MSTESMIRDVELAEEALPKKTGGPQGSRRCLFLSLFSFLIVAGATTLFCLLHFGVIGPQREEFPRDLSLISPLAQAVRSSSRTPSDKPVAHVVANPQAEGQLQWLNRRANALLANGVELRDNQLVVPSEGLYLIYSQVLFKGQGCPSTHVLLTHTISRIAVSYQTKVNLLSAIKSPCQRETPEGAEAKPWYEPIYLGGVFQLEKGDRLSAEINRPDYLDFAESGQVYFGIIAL

[9] = molecular target: Nucleotide-binding oligomerization domain-containing protein 2 (Homo sapiens, UniProt Q9HC29); test: NOD2 signaling inhibitors, cell-based, luminescence, uHTS, HEK293 (AID 1566); format: functional
[10] = molecular target: Type-1 angiotensin II receptor (Homo sapiens, UniProt P30556); test: AT1 receptor agonists, dose response, selectivity assay for APJ receptor agonist project, cell-based, uHTS hits (AID 488865); format: functional;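 further: beta-arrestin recruitment to AT1 measured by enzyme fragment complementation luminescence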
Saccharomyces cerevisiae = test: NALP1 inhibitor project selectivity study, Caspase-1/ASC signal blockade IC50 in S. cerevisiae (AID 488863); format: functional, organism-based
[11] = molecular target: T3, Oxysterols receptor LXR-beta (Homo sapiens, UniProt P55055); format: functional, cell-based;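 further: Cell-based luminescence dose-response assay of agonist activity at LXR, run as a confirmatory counterscreen to a daf-12 agonist screen; HEK293 cells with Gal4-LXR fusion and GAL4-driven luciferase reporter; agonist potency from rising luciferase signal of a Gal4-LXR reporter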
T3 sequence (P55055 whole entry): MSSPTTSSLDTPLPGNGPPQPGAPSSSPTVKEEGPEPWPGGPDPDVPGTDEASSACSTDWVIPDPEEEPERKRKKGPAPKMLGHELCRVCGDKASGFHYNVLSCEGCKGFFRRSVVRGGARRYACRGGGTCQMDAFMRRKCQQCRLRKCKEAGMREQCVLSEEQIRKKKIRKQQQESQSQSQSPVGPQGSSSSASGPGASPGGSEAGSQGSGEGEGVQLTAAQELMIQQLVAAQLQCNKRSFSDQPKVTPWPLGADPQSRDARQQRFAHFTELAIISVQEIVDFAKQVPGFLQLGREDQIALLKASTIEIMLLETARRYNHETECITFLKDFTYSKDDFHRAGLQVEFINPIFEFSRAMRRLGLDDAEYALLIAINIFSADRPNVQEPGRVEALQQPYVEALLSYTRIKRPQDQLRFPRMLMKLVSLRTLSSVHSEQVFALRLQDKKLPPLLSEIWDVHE

[12] = molecular target: NACHT, LRR and PYD domains-containing protein 1 (Homo sapiens, UniProt Q9C000); test: NALP1 inhibitors in yeast, dose response, luminescent (AID 488860); format: functional
SUMO-activating enzyme [13] = molecular target: T4, SUMO-activating enzyme (Homo sapiens, UniProt Q9UBT2); test: inhibitors of in vitro SUMOylation cascade, primary screen, biochemical, HTRF, uHTS (AID 2006); format: protein-complex assay
T4 sequence (Q9UBE0 whole entry): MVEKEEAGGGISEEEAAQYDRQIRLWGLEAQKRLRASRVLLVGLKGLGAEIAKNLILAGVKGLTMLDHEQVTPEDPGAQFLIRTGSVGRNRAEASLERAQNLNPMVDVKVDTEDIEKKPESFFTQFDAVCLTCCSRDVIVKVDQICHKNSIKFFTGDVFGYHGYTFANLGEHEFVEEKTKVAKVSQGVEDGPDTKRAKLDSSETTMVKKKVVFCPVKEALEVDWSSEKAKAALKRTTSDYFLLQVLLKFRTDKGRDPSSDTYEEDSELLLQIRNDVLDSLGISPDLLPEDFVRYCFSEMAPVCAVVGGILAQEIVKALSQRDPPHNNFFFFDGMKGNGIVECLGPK
T4 sequence (Q9UBT2 whole entry): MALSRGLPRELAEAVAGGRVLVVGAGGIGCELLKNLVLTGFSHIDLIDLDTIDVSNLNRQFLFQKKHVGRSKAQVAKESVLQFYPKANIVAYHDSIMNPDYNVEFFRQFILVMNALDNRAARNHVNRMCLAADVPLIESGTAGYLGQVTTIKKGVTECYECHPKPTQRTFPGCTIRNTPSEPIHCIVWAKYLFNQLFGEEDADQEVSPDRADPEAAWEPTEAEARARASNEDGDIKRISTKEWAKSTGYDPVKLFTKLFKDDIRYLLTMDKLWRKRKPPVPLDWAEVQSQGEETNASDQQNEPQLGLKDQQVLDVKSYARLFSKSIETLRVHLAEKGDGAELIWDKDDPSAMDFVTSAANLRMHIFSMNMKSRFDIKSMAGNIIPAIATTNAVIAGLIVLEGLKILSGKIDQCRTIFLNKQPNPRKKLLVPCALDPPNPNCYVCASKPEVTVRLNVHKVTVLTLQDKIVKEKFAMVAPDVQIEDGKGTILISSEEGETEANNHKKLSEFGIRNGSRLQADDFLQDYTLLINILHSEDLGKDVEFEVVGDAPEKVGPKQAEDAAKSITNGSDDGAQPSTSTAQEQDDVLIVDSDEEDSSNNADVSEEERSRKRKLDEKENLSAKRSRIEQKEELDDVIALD

Coagulation factor XII = molecular target: T5, Coagulation factor XII (Homo sapiens, UniProt P00748); format: functional;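 further: activated factor XIIa alpha cleaving a fluorogenic AMC peptide substrate; inhibitor potency from loss of enzyme activity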
T5 sequence (P00748 whole entry): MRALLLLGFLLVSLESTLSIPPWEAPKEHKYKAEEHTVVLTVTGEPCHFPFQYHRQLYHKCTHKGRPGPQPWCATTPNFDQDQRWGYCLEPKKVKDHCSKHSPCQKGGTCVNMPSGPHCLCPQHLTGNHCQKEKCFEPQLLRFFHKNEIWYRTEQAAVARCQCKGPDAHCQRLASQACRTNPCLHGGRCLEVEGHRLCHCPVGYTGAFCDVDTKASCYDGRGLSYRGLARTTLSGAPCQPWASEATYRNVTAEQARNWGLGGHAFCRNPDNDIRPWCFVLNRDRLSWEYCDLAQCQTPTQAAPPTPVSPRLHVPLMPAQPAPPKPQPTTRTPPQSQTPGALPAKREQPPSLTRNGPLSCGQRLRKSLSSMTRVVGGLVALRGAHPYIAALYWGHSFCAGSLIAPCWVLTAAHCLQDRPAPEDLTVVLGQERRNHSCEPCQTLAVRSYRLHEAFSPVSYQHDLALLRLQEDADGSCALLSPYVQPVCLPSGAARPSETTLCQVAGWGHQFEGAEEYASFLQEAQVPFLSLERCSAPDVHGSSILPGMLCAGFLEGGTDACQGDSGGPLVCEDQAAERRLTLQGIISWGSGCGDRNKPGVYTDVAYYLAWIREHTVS

SUMO-activating enzyme [14] = molecular target: T4, SUMO-activating enzyme; test: SUMOylation inhibitor hit validation, confirmation, SUMOylation inhibitor project, biochemical, AlphaScreen (AID 2018); format: functional
[15] = molecular target: T6, Orexin/Hypocretin receptor type 1 (Homo sapiens, UniProt O43613); test: Homogeneous Time Resolved Fluorescence (HTRF)-based cell-based high throughput dose response assay for antagonists of the orexin 1 receptor (OX1R; HCRTR1). [Related pubchem assays (depositor defined):AID434989, AID435008, AID463079, AID485270, AID492963, AID492964, AID492965, AID493232, AID504717, AID504718]; format: functional
[16] = (§1) Counterscreen for antagonists of the orexin 1 receptor (OX1R; HCRTR1): Fluorescence-based cell-based high throughput dose response assay to identify antagonists of the parental CHO cell line. [Related pubchem assays (depositor defined):AID434989, AID435008, AID463079, AID485270, AID492963, AID492964, AID492965, AID493232, AID504699, AID504701]; format: functional
CHO-K1 = test: as §1, with “Homogeneous time resolved fluorescence (HTRF)-based” for “Fluorescence-based”, “cell-based” for “cell-based high throughput”, “CHO-K1” for “CHO”; format: functional; details: Cricetulus griseus;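 further: potency for inhibition of ATP-stimulated IP1 production as antagonists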
[17] = molecular target: T6, Orexin/Hypocretin receptor type 1; test: Fluorescence-based cell-based high throughput dose response assay for antagonists of the orexin 1 receptor (OX1R; HCRTR1). [Related pubchem assays (depositor defined):AID434989, AID435008, AID463079, AID485270, AID492963, AID492964, AID492965, AID493232, AID504717, AID504718]; format: functional
[18] = cytotoxicity in MIN6 insulinoma cells, dose response, cytotoxicity control, cell-based, mouse insulinoma (AID 2122); format: functional;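 further: confirmatory high-throughput counterscreen run to flag cytotoxic compounds; mouse MIN-6 beta cells carrying an insulin promoter eGFP reporter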
Importin subunit alpha-1 = Importin subunit alpha-1 (Homo sapiens, UniProt P52292); test: YIC FRET probe signal interference, dose response, counter-screen for RanGTP-importin-beta inhibitor project, biochemical, dry powder samples (AID 493094); format: functional
[19] = insulin promoter down-regulators in MIN6 cells, imaging, high-content screening, mouse beta cells (AID 1628); format: functional
[20] = cytotoxicity toward NIH3T3 fibroblasts, dose response, counter-screen, cell-based, ATP luminescence, mouse fibroblasts (AID 2010); format: functional;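 further: cells exposed to compound for about 90 hours before reading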
[21] = inhibitors of Ran–importin-beta complex, dose response, biochemical, plate reader, dry powder (AID 493048); design: species or system Homo sapiens
[22] = inhibitors of intracellular T. cruzi replication, confirmation, NIH3T3 host cells, beta-gal luminescence (AID 2044); format: functional, cell-based;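 further: intracellular parasites grown in NIH/3T3 mouse fibroblasts as host cells; luminescent beta-galactosidase reporter signal from transgenic T. cruzi replicating inside host cells; inhibitors lower the luminescence signal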
[23] = molecular target: T7, Runt-related transcription factor 1/Core-binding factor subunit beta (Homo sapiens, UniProt Q01196+Q13951); test: inhibitors of RUNX1 Runt–CBFb-SMMHC binding, primary screen, biochemical, FRET, Cerulean-Runt, Venus-CBFb-SMMHC, uHTS (AID 1434); format: protein assay;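 further: partner is the CBFb-SMMHC leukemia fusion protein rather than wild-type CBFb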
T7 sequence (Q01196 whole entry, the tested form may be a part): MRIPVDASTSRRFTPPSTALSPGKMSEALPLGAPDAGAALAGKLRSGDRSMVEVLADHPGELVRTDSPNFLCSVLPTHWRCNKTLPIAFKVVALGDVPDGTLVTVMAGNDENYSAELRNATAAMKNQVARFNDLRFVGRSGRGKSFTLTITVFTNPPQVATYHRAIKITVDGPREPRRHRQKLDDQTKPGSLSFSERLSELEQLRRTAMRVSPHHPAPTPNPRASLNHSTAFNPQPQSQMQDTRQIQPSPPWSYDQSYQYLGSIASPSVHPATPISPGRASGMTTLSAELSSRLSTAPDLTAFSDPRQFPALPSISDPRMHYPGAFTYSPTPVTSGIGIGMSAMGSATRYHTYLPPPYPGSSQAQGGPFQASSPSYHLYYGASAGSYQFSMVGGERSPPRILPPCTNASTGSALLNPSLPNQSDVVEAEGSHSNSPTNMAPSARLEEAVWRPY
T7 sequence (Q13951 whole entry, the tested form may be a part): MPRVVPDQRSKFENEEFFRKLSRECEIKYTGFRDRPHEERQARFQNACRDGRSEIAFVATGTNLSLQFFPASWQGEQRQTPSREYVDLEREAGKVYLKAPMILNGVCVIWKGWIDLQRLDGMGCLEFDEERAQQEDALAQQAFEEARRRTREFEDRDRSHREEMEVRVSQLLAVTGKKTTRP

[24] = molecular target: T7, Runt-related transcription factor 1/Core-binding factor subunit beta; test: inhibitors of RUNX1 Runt–CBFb-SMMHC binding, biochemical, TR-FRET (AID 1438); format: protein assay
[25] = molecular target: Voltage-dependent T-type calcium channel subunit alpha-1H (Homo sapiens, UniProt O95180); test: Cav3.2 T-type channel inhibitors, cell-based, synthetic library set 1, calcium flux (AID 493022); format: functional
[26] = molecular target: T8, Tyrosine-protein phosphatase non-receptor type 7 (Homo sapiens, UniProt P35236); test: redox-dependent HePTP inhibition, mechanism study, biochemical, fluorescence (AID 2068); format: functional
T8 sequence (P35236 whole entry): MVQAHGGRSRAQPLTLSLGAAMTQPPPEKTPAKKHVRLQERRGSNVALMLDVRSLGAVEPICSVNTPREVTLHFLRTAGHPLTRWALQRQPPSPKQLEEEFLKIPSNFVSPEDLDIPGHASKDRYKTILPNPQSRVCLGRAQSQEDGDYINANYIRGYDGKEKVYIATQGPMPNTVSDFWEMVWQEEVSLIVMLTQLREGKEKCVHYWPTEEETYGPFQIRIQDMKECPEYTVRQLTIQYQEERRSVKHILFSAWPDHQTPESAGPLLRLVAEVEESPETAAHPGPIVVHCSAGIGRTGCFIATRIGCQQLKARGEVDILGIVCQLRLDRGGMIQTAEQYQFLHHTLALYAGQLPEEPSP

[27] = molecular target: Signal transducer and activator of transcription 3 (Homo sapiens, UniProt P40763); test: STAT3 inhibitors, late-stage profile, late-stage follow-up, cell-based, STAT1 panel, qPCR, cytotoxicity, panel member STAT3 Inhibition (AID 2078)
[28] = molecular target: Signal transducer and activator of transcription 1-alpha/beta (Homo sapiens, UniProt P42224); test: STAT3 inhibitors, late-stage profile, late-stage follow-up, cell-based, STAT1 panel, qPCR, cytotoxicity, panel member STAT1 Inhibition (AID 2078)

SMILES: COc1ccc2cc3c(N)nn(C(=O)c4ccc(Cl)c([N+](=O)[O-])c4)c3nc2c1
EC50 (HEK293 [1]): 3.5 µM (active) | IC50 [2]: 1.72 µM (active) | IC50 (HEK293 [3]): 2.29 µM (active) | IC50 (HEK293 [4]): 1.71 µM (active) | IC50 (HEK293 [5]): > 20 µM (inactive) | IC50 [6]: 28.7 µM (active) | IC50 [7]: 16.1 µM (active)

SMILES: O=C(CSc1nc2scc(-c3ccccc3)c2c(=O)[nH]1)Nc1ccccc1
IC50 [8]: 2.83 µM (active) | IC50 (Tumor necrosis factor): 1.96 µM (active) | EC50 [9]: 0.95 µM (active)

EC50 [10]: > 100 µM (inactive)
SMILES: NC(=NOS(=O)(=O)c1ccc2ccccc2c1)c1ccncc1

SMILES: CSc1nnc(-c2cc3c(s2)-c2ccccc2CC3)o1
IC50 (Saccharomyces cerevisiae): > 100 µM (inactive) | EC50 [11]: > 67.5 µM (inactive) | IC50 [12]: > 100 µM (inactive) | EC50 (cells): > 67.5 µM (inactive)

IC50 [2]: 3.91 µM (active) | IC50 (SUMO-activating enzyme [13]): 17.5 µM (active) | IC50 (Coagulation factor XII): > 50 µM (inactive) | IC50 (SUMO-activating enzyme [14]): 19.8 µM (active)
SMILES: COc1ccc(C2=NN(C(=O)CCCC(=O)O)C(c3cn(-c4ccccc4)nc3-c3ccccc3)C2)cc1 (stereo not given)

SMILES: Cn1cc(/C=C(\C#N)C(=O)Nc2ccccc2O)c2ccccc21
IC50 [15]: 4.48 µM (active) | IC50 [16]: 25 µM (inactive) | IC50 (CHO-K1): > 66.2 µM (inactive) | IC50 [17]: 5.57 µM (active)

SMILES: CCOCCCn1c(=N)c(C(=O)NCc2ccc3c(c2)OCO3)cc2c(=O)n3cccc(C)c3nc21
IC50 [18]: 5.17 µM (active) | AC50 (Importin subunit alpha-1): 135 µM (active) | IC50 [19]: 1.54 µM (active) | EC50 [20]: > 60 µM (not active) | AC50 [21]: 227 µM (active) | EC50 [22]: 1.27 µM (active)

IC50 [23]: > 100 µM (inactive) | IC50 [24]: > 100 µM (inactive)
SMILES: COc1ccc(OC)c(S(=O)(=O)N(C(C)=O)c2ccc3oc(=O)sc3c2)c1

EC50 [25]: 2.7 µM (active)
SMILES: CC(Oc1ccccc1)C(=O)Nc1nnc(-c2ccc3ccccc3c2)o1 (stereo not given)

IC50 [26]: 1.26 µM (active)
SMILES: O=C(Nc1ccc2nc(-c3ccco3)c(-c3ccco3)nc2c1)Nc1cccc2ccccc12

SMILES: c1ccc(CC2CCN(c3nc(CN4CCOCC4)nc4sc5c(c34)CCCC5)CC2)cc1
IC50 [27]: > 55.7 µM (inactive) | IC50 [28]: > 55.7 µM (inactive)
